Data on one molecule can be found in patent publication US20090169583A1, “Solid Adsorbates of Hydrophobic Drugs” (Pfizer, Inc., priority 2005, published 2009).

A short description of data set [1]: microcentrifuge dissolution test (in vitro evaluation of concentration enhancement). The following applies: for AUC: area under concentration-versus-time curve in PBS pH 6.5, 37° C.; for Concentration: dissolved torcetrapib in supernatant, 1000 μg/mL if all drug dissolved. It counts as physicochemical. On the procedure: The solid composition of Example 1 was evaluated in vitro using a microcentrifuge dissolution test as follows. For this test, a sufficient amount of material was added to a microcentrifuge test tube so that the concentration of torcetrapib would have been 1000 μg/mL, if all of the drug had dissolved. The test was run in duplicate. The tubes were placed in a 37° C. temperature-controlled chamber, and 1.8 mL PBS at pH 6.5 and 290 mOsm/kg was added to each respective tube. The samples were quickly mixed using a vortex mixer for about 60 seconds. The samples were centrifuged at 13,000 G at 37° C. for 1 minute. The resulting supernatant solution was then sampled and diluted 1:6 (by volume) with methanol and then analyzed by HPLC. The contents of each tube were mixed on the vortex mixer and allowed to stand undisturbed at 37° C. until the next sample was taken. Samples were collected at 4, 10, 20, 40, 90, and 1200 minutes. Control 1 (C1) consisted of crystalline torcetrapib alone, and a sufficient amount of material was added so that the concentration of drug would have been 1000 μg/mL, if all of the drug had dissolved. The concentrations of drug obtained in these samples were used to determine the maximum drug concentration (“MDC90”) and the area under the concentration-versus-time curve (“AUC90”) during the initial ninety minutes.

A short description of another data set: aqueous solubility. The following applies: aqueous medium; aqueous solubility determined at about 22° C. unless otherwise specified. It counts as physicochemical. Here is the method:
A second property of hydrophobic drugs is that they have low aqueous solubility. […] Extremely low aqueous solubility often leads to poor or slow absorption of the drug from the fluid of the gastrointestinal tract, when the drug is dosed orally in a conventional manner. For extremely low solubility drugs, absorption generally becomes progressively more difficult as the dose (mass of drug given orally) increases. Thus, a third property of hydrophobic drugs is a very high dose (in mg) to solubility (In mg/ml) ratio (ml). By “very high dose-to-solubility ratio” is meant that the dose-to-solubility ratio may have a value of at least 1000 ml, at least 5,000 ml, or even at least 10,000 ml. The dose-to-solubility ratio may be determined by dividing the dose (in mg) by the aqueous solubility (in mg/ml).
CETP inhibitors, in particular torcetrapib, and methods for preparing such compounds are disclosed in detail in U.S. Pat. Nos. 6,197,786 and 6,313,142, in PCT Application Nos. WO 01/40190A1, WO 02/088085A2, and WO 02/088069A2, the disclosures of which are herein incorporated by reference. Torcetrapib has an unusually low solubility in aqueous environments such as the lumenal fluid of the human GI tract. The aqueous solubility of torcetrapib is less than about 0.04 μg/ml. […]

Setting [2] is: during the initial ninety minutes, PBS pH 6.5, 37° C.

In the case of `CCOC(=O)N1c2ccc(C(F)(F)F)cc2[C@@H](N(Cc2cc(C(F)(F)F)cc(C(F)(F)F)c2)C(=O)OC)C[C@H]1CC` [torcetrapib, [2R,4S]-4-[(3,5-bis-trifluoromethyl-benzyl)-methoxycarbonyl-amino]-2-ethyl-6-trifluoromethyl-3,4-dihydro-2H-quinoline-1-carboxylic acid ethyl ester], the AUC (in general, the area under the concentration-time curve, a measure of exposure) is 0 µg·min/mL in data set [1] (up to time 0 min); below 2 µg·min/mL in data set [1] (up to time 4 min); below 8 µg·min/mL in data set [1] (up to time 10 min); below 18 µg·min/mL in data set [1] (up to time 20 min); below 38 µg·min/mL in data set [1] (up to time 40 min); below 88 µg·min/mL in data set [1] (up to time 90 min). The AUC in data set [1] (up to time 1200 min) is <1,200 min*μg/mL. For the same molecule, the C1200 in data set [1] (concentration at 1200 minutes, PBS pH 6.5, 37° C.) was below 1 µg/mL. Also, the Concentration in data set [1] (PBS pH 6.5, 37° C., time 0 min) was 0 ng/mL; in data set [1] (PBS pH 6.5, 37° C., time 4 min), below 1000 ng/mL; in data set [1] (PBS pH 6.5, 37° C., time 10 min), below 1000 ng/mL; in data set [1] (PBS pH 6.5, 37° C., time 20 min) it was below 1000 ng/mL; in data set [1] (PBS pH 6.5, 37° C., time 40 min), below 1000 ng/mL; in data set [1] (PBS pH 6.5, 37° C., time 90 min) it was below 1000 ng/mL. Moreover, the Concentration in data set [1] (PBS pH 6.5, 37° C., time 1200 min) is below 1000 ng/mL. Moreover, the “AUC90 (area under the concentration-versus-time curve)” value in data set [1] (setting [2]) is below 88 µg·min/mL. Further, the “MDC90 (maximum drug concentration)” value in data set [1] (setting [2]) is below 1 µg/mL. In addition, the solubility (commonly the concentration that dissolves in the medium under given conditions) in the data set “aqueous solubility” is below 0.04 µg/mL.
